Key:
[1] = Determination of fluorescence lifetime (variable frequency phase fluorimeter); assay type: physicochemical
Method: The fluorescence lifetime of the DNP-fluorescein conjugates was measured on an ISS Greg-200 variable frequency phase fluorimeter as described previously (Lakowicz et al, Biophys. J., vol. 46, pp. 463-477 (1984) and Gratton et al, Biophys. J., vol. 46, pp. 479-486 (1984)) using 1-chloro-bis-(phenylethynyl)anthracene (Aldrich) in ethanol (3.791 ns) as a reference (Thompson et al. Anal. Chem., vol. 60, pp. 670-674 (1988)). The resulting phase and modulation data for DNP-Ins-FL were fit to one, two, and three emissive components using a Simplex algorithm supplied by ISS. […] When the data were fit to a three component model, the third component was weak (<5%), poorly defined (1.1±3.2 ns), and gave no improvement in X^2. Therefore, a third component appears to be unnecessary to fit the data. Since the DNP moiety has the ability to quench the fluorescein emission, the data are best explained by two fluorescein residues being remote from and unquenched by the DNP group with the third fluorescein residue being closer and subject to quenching. In accord with this explanation is the observation that the fluorescence of the DNP-lysine-fluorescein derivative was substantially quenched as shown by its reduced quantum efficiency and subanosecond fluorescence lifetime.

non-immune mouse IgG = assay: Nonspecific binding of DNP-conjugates to IgG-Sepharose; settings: for DNP-Conjugate Bound / Ratio of Bound DNP-Conjugate to Immobilized IgG: binding to non-immune IgG; for DNP-Conjugate Bound: applied conjugate to immobilized IgG 3.0 moles/moles; for Ratio of Bound DNP-Conjugate to Immobilized IgG: applied ratio 3.0
Method: (§1) Fluorescence intensity was measured on a SLM 8000 fluorimeter at 490 nm excitation and 519 nm emission. Individual fluorescence standard curves with known concentrations of the different DNP-fluorescein conjugates were used to calculate the amounts of DNP-conjugates from fluorescence units. Antibodies were coupled to tresyl chloride-activated Sepharose 4B (Sigma) at a concentration of 200 ug antibody/100 mg gel according to the manufacturer's recommendation. The amount of immobilized antibody was determined using a Coomassie blue assay as described in Ahmad et al, Anal. Biochem., vol. 148, pp 533-541 (1985). Peptide and protein determinations in fluid-phase were performed by UV absorbance at 280 nm, by the bicinchoninic acid method (Smith et al, Anal. Biochem., vol. 150, pp. 76-85 (1985)) using the Pierce BCA Protein Assay Reagent (Pierce), and by the Folin-Ciocalteau method (Lowry et al, J. Biol. chem., vol. 193, pp. 265 (1951)). The A-chain of bovine insulin (oxidized to the S-sulfonate form) (Sigma), the DNP-Ins conjugate, and the DNP-Ins-Flu conjugate were radiolabeled with Na^125 I (Amersham, Arlington Heights, IL) using immobilized chloramine-T (Iodo-Beads; Pierce, Rockford, IL) (Petrella et al, J. Immunol. Methods, vol. 104, pp. 159-172 (1987)).
(§2) Specific binding of the DNP-conjugates was determined with the murine monoclonal anti-DNP antibody #51 (Stanley et al, J. Immunol. Methods, vol. 64, pp. 119-132 (1983) and Steward et al, J. Immunol. Methods, vol. 78, pp. 173-190 (1985)) coupled to tresyl chloride-activated Sepharose 4B (anti-DNP-Sepharose) The monoclonal IgG1 antibody #51 (purified from ascites) was kindly provided by Dr. M. W. Steward (Dept. of Medical Microbiology, London School of Hygiene and Tropical Medicine, London, U.K.). Nonspecific binding was measured with Sepharose 4B-immobilized non-immune mouse IgG purified from mouse serum (Jackson ImmunoResearch Laboratories, West Grove, PA) (IgG-Sepharose). After removal of buffer by vacuum filtration on a scintered glass funnel, 50 mg aliquots of Sepharose 4B-antibody matrices were transferred to plastic conical vials and incubated with ^125 I-labeled DNP-insulin A-chain-fluorescein conjugate (1.6×10^6 cpm/nmole), or ^125 I-labeled DNP-insulin A-chain conjugate without attached fluorescein residues (3.3×10^6 cpm/nmole), or non-radiolabeled DNP-Lys-Fl at a 3 to 1 molar ratio of DNP-derivative to immobilized IgG in 10 mM phosphate/150 mM NaCl, pH 7.6, overnight at 4° C. on a rocking platform. Unbound conjugate was recovered by poking a hole in the bottom of the plastic vial with a 30 gauge needle, loading the vial on the top of a glass test tube, and centrifuging. Subsequent washing steps were performed with 150 μl of 10 mM phosphate/150 mM NaCl/0.1% (v/v) Triton X-100, pH 7.6. Aliquots of the solutions collected in the bottom of the test tubes after centrifugation were assayed for radioactivity or fluorescence.

[2] = tested on: immobilized monoclonal anti-DNP antibody #51; assay: Displacement of DNP-conjugates from immobilized monoclonal anti-DNP antibody by DNP-lysine; assay type: binding, murine; settings: for Displacement of Antibody-Bound DNP-Conjugate by DNP-Lysine: ± S.D., free DNP-lysine to antibody-bound conjugate 2.0 (DNP-Lys-Fl) or 3.4 (DNP-Ins-Fl, DNP-Ins) mole/mole
Method: as §2
Aliquots of anti-DNP-Sepharose (50 mg) were incubated with ^125 I-labeled DNP-insulin A-chain, or ^125 I-labeled DNP-insulin A-chain-fluorescein, or DNP-lysine-fluorescein and washed with 10 mM phosphate/150 mM NaCl/0.1% (v/v) Triton X-100, pH 7.6 , as described above in Specific and Nonspecific Binding of DNP-Conjugates. […] Displacement was determined by assaying aliquots of the solutions collected in the bottom of the test tubes after centrifugation for radioactivity or fluorescence.

[3] = tested on: murine monoclonal anti-DNP antibody #51; assay: Binding of DNP-conjugates to anti-DNP-Sepharose; settings: for binding to anti-DNP-Sepharose after extensive washing (FIG. 3): 3:1 molar ratio of conjugate to immobilized antibody; for amount specifically bound to the antigen binding sites of immobilized antibody #51: after subtraction of non-specific binding to non-immune IgG-Sepharose; for DNP-Conjugate Bound / Ratio of Bound DNP-Conjugate to Immobilized IgG: binding to anti-DNP IgG1; for DNP-Conjugate Bound: applied conjugate to immobilized IgG 3.0 moles/moles, insulin conjugates 125I-labeled; for Ratio of Bound DNP-Conjugate to Immobilized IgG: applied ratio 3.0
Method: as §1, §2

Compound | fluorescence lifetime ([1]; in words) | non-specific binding of DNP-Lys-Fl to immobilized non-immune IgG relative to DNP-Ins-Fl (non-immune mouse IgG) | DNP-Conjugate Bound (non-immune mouse IgG) | Ratio of Bound DNP-Conjugate to Immobilized IgG (non-immune mouse IgG) | Displacement of Antibody-Bound DNP-Conjugate by DNP-Lysine [2] | binding to anti-DNP-Sepharose after extensive washing (FIG. 3) [3] | fold difference in binding of DNP-Lys-Fl versus DNP-Ins-Fl to anti-DNP-Sepharose ([3]; 3:1 molar ratio, after extensive washing) | amount specifically bound to the antigen binding sites of immobilized antibody #51 [3] | DNP-Conjugate Bound [3] | Ratio of Bound DNP-Conjugate to Immobilized IgG [3] | fluorescence lifetime, shorter lifetime component ([1]; two component fit) | fraction of first lifetime component ([1]; two component fit) | fraction of shorter lifetime component ([1]; two component fit) | fluorescence lifetime, first component ([1]; two component fit, X^2 =1.26) | non-specific binding of DNP-Ins-Fl relative to DNP-Lys-Fl (non-immune mouse IgG; see Table II) | efficiency of displacement by DNP-lysine relative to DNP-Ins [2] | efficiency of displacement by DNP-lysine relative to DNP-Lys-Fl ([2]; under comparable conditions)
O=C(O)c1cc(NC(=S)N[C@@H](CCCCNc2ccc([N+](=O)[O-])cc2[N+](=O)[O-])C(=O)O)ccc1-c1c2ccc(=O)cc-2oc2cc(O)ccc12 [DNP-Lys-Fl, DNP-lysine-fluorescein, reference compound] | subanosecond | three-fold higher | 1.27 ± 0.07 nmol | 1.5 moles/moles | 0.45 ± 0.14 pmol | 62.7% | 1.6 fold | 0.4 mole conjugate/mole antibody | 0.37 ± 0.02 nmol | 1.9 moles/moles |  |  |  |  |  |  | 
dinitrophenyl-insulin A-chain [DNP-Ins] |  |  |  |  | 1.56 ± 0.01 pmol |  |  |  | 0.11 ± 0.01 nmol | 1.2 moles/moles |  |  |  |  |  |  | 
DNP-insulin A-chain-fluorescein [DNP-Ins-Fl] |  |  | 0.44 ± 0.16 nmol | 0.5 moles/moles | 3.20 ± 0.70 pmol | 38.8% |  | 0.7 mole conjugate/mole antibody | 0.11 ± 0.03 nmol | 1.2 moles/moles | 2.068±0.150 ns | 64±7% | 36% | 4.091±0.177 ns | about one-third | two-fold more efficient | much more efficient

Source: patent US5106762A, “Ligand-label conjugates which contain polyoxoanions of sulfur or phosphorus” (Georgetown University, priority 1990, dated 1992)
